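Values below derive from 48-hour exposures of cells grown in 96-well plates, with endpoints linearly interpolated between the two concentrations bracketing the appropriate inhibition level. At the TGI there is no net growth.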
Each compound was assayed on MALME-3M melanoma (assay: DTP human tumour cell line panel, 48 h).
In the case of `Cc1cccc(N2C(=O)C(Cl)=C(Cl)C2=O)c1`, the TGI is reported as over 59.4 µM. `CCC(C)(O)c1cn(-c2cccc(S(=O)(=O)O)c2)nn1` (stereo not given) gave a TGI of over 100 µM. `COc1ccc(OC)c(/C=C/NC=O)c1` showed a TGI of over 100 µM. With `CC(=O)c1cccc2c1CC1(C2)Cc2ccc3c(c2C1=O)CCC3` (stereo not given) the TGI was over 100 µM. With `COc1cc(Cc2cc(OC)c(OC)c(OC)c2)ccc1O` the TGI was 12 µM. For `Nc1nc(Cl)cc(NCC2(CO)CC(OCc3ccccc3)C2)n1` (stereo not given), the TGI was over 100 µM. `CC1=CC(=O)NCCN1C` showed a TGI of over 100 µM.

What follows are compounds tested on HCC-2998 colon (assay: DTP human tumour cell line panel, 48 h).
`Cc1cccc(N2C(=O)C(Cl)=C(Cl)C2=O)c1` showed a TGI of over 100 µM. For `CCC(C)(O)c1cn(-c2cccc(S(=O)(=O)O)c2)nn1` (stereo not given), the TGI was over 100 µM. Compound `COc1ccc(OC)c(/C=C/NC=O)c1` has a TGI of over 100 µM. Compound `CC(=O)c1cccc2c1CC1(C2)Cc2ccc3c(c2C1=O)CCC3` (stereo not given) has a TGI of 67.4 µM. `COc1cc(Cc2cc(OC)c(OC)c(OC)c2)ccc1O` showed a TGI of over 100 µM. In the case of `Nc1nc(Cl)cc(NCC2(CO)CC(OCc3ccccc3)C2)n1` (stereo not given), the TGI is reported as over 100 µM. In the case of `CC1=CC(=O)NCCN1C`, the TGI is reported as over 100 µM.

Each compound was assayed on MDA-N (assay: DTP human tumour cell line panel, 48 h).
With `CC(=O)c1cccc2c1CC1(C2)Cc2ccc3c(c2C1=O)CCC3` (stereo not given) the TGI was over 100 µM. With `Nc1nc(Cl)cc(NCC2(CO)CC(OCc3ccccc3)C2)n1` (stereo not given) the TGI was over 100 µM.

Each compound was assayed on U251 CNS (assay: DTP human tumour cell line panel, 48 h).
`Cc1cccc(N2C(=O)C(Cl)=C(Cl)C2=O)c1` was tested, and the TGI was over 100 µM. `CCC(C)(O)c1cn(-c2cccc(S(=O)(=O)O)c2)nn1` (stereo not given) was tested, and the TGI was over 100 µM. With `COc1ccc(OC)c(/C=C/NC=O)c1` the TGI was over 100 µM. Work on `CC(=O)c1cccc2c1CC1(C2)Cc2ccc3c(c2C1=O)CCC3` (stereo not given) yielded a TGI of over 100 µM. With `COc1cc(Cc2cc(OC)c(OC)c(OC)c2)ccc1O` the TGI was over 100 µM. `Nc1nc(Cl)cc(NCC2(CO)CC(OCc3ccccc3)C2)n1` (stereo not given) showed a TGI of over 100 µM. `CC1=CC(=O)NCCN1C` was tested, and the TGI was over 100 µM.

The compounds below were run on T-47D breast (assay: DTP human tumour cell line panel, 48 h).
Work on `CC(=O)c1cccc2c1CC1(C2)Cc2ccc3c(c2C1=O)CCC3` (stereo not given) yielded a TGI of over 100 µM. `Nc1nc(Cl)cc(NCC2(CO)CC(OCc3ccccc3)C2)n1` (stereo not given) was tested, and the TGI was 41.9 µM.

What follows are compounds tested on SNB-78 CNS (assay: DTP human tumour cell line panel, 48 h).
In the case of `Cc1cccc(N2C(=O)C(Cl)=C(Cl)C2=O)c1`, the TGI is reported as over 100 µM. Compound `CCC(C)(O)c1cn(-c2cccc(S(=O)(=O)O)c2)nn1` (stereo not given) has a TGI of over 100 µM. Work on `COc1ccc(OC)c(/C=C/NC=O)c1` yielded a TGI of over 100 µM. Work on `COc1cc(Cc2cc(OC)c(OC)c(OC)c2)ccc1O` yielded a TGI of over 100 µM. In the case of `CC1=CC(=O)NCCN1C`, the TGI is reported as over 100 µM.

Each compound was assayed on TK-10 renal (assay: DTP human tumour cell line panel, 48 h).
Compound `Cc1cccc(N2C(=O)C(Cl)=C(Cl)C2=O)c1` has a TGI of over 100 µM. For `CCC(C)(O)c1cn(-c2cccc(S(=O)(=O)O)c2)nn1` (stereo not given), the TGI was over 100 µM. Work on `COc1ccc(OC)c(/C=C/NC=O)c1` yielded a TGI of over 100 µM. `CC(=O)c1cccc2c1CC1(C2)Cc2ccc3c(c2C1=O)CCC3` (stereo not given) showed a TGI of 77.6 µM. Work on `COc1cc(Cc2cc(OC)c(OC)c(OC)c2)ccc1O` yielded a TGI of over 100 µM. With `Nc1nc(Cl)cc(NCC2(CO)CC(OCc3ccccc3)C2)n1` (stereo not given) the TGI was over 100 µM. `CC1=CC(=O)NCCN1C` gave a TGI of over 100 µM.

What follows are compounds tested on PC-3 prostate (assay: DTP human tumour cell line panel, 48 h).
`COc1ccc(OC)c(/C=C/NC=O)c1` gave a TGI of over 100 µM. For `CC(=O)c1cccc2c1CC1(C2)Cc2ccc3c(c2C1=O)CCC3` (stereo not given), the TGI was over 100 µM. `Nc1nc(Cl)cc(NCC2(CO)CC(OCc3ccccc3)C2)n1` (stereo not given) showed a TGI of over 100 µM.

These compounds were tested on KM20L2 colon (assay: DTP human tumour cell line panel, 48 h).
With `Cc1cccc(N2C(=O)C(Cl)=C(Cl)C2=O)c1` the TGI was over 100 µM. `CCC(C)(O)c1cn(-c2cccc(S(=O)(=O)O)c2)nn1` (stereo not given) was tested, and the TGI was over 100 µM. `COc1ccc(OC)c(/C=C/NC=O)c1` gave a TGI of over 100 µM. `COc1cc(Cc2cc(OC)c(OC)c(OC)c2)ccc1O` was tested, and the TGI was over 100 µM. `CC1=CC(=O)NCCN1C` gave a TGI of over 100 µM.

The compounds below were run on MOLT-4 leukemia (assay: DTP human tumour cell line panel, 48 h).
With `Cc1cccc(N2C(=O)C(Cl)=C(Cl)C2=O)c1` the TGI was over 75.8 µM. `CCC(C)(O)c1cn(-c2cccc(S(=O)(=O)O)c2)nn1` (stereo not given) gave a TGI of over 100 µM. Work on `COc1ccc(OC)c(/C=C/NC=O)c1` yielded a TGI of over 100 µM. `CC(=O)c1cccc2c1CC1(C2)Cc2ccc3c(c2C1=O)CCC3` (stereo not given) gave a TGI of over 100 µM. For `COc1cc(Cc2cc(OC)c(OC)c(OC)c2)ccc1O`, the TGI was over 100 µM.
